Assay results published in patent US8936916B2, “Polypeptides for microbial detection” (3M Innovative Properties Company, priority 2008, dated 2015).
Ends that are not written are not given here. * marks the point of attachment. Myristoyl = CCCCCCCCCCCCCC(=O)*

Assay: Permeabilization of DPPC liposomes containing glucose oxidase by phosphorylated dermatoxin (absorbance at 538 nm)
Assay type: biochemical
Experimental: DPPC liposomes containing 5 mg/mL glucose oxidase were prepared as described in Example 2. Glucose oxidase activity was measured in a coupled enzyme reaction with horseradish peroxidase as described in Example 2. The various solutions were quickly added to each of the wells of a microplate using a multichannel pipette and the reactions were started (at T=0 hours) with the addition to the wells of a solution containing glucose and 4-AAP.
The ability of the phosphorylated dermatoxin to open liposomes in the presence of phosphatase was tested by preparing a developing solution as described in Example 2. One hundred-fifty microliters of the developing solution was placed in each well of a 96-well microplate. To each column in the plate was added 20 μL of TES buffer containing one of the following concentrations of unpurified dermatoxin: 3.3 mg/mL, 3.3×10^−1 mg/mL, 3.3×10^−2 mg/mL, 3.3×10^−3 mg/mL, 3.3×10^−4 mg/mL, 3.3×10^−5 mg/mL, 3.3×10^−6 mg/mL, or 3.3×10^−7 mg/mL. Negative control wells contained TES buffer with no dermatoxin. Positive control wells buffer contained TES buffer with Triton X-100. Ten-microliter aliquots of the following concentrations of DPPC liposomes (containing 5 mg/mL glucose oxidase) were added to wells in duplicate rows: 0.1 mg lipid/mL, 0.02 mg lipid/mL, 0.004 mg lipid/mL, or plain buffer. To one of the duplicate rows was added 20 μL of 2.5 mg/mL alkaline phosphatase in TES. The other duplicate row received 20 μL of TES buffer. Thus the final dermatoxin concentration in the well varied from […], and the final lipid concentration in the well ranged from 0.005 mg lipid/mL to 2.0×10^−4 mg lipid/mL.
The absorbance was recorded at 538 nm on a SpectraMax M5 plate reader (Molecular Devices, Sunnyvale, Calif.) after two hours incubation at room temperature, and also after overnight incubation (approximately 18 hours). Since the absorbance of several wells was saturated, the overnight samples were diluted 1:10 with 50 mmol TES and the absorbance of the diluted samples was measured.

With “SLGSFLKGVGTTLASVGKVVSDQFGKLLQAGQ (Myristoyl-SLGSFLKGVGTTLASVGKVVSDQFGKLLQAGQ; also: phosphorylated) [phosphorylated dermatoxin, fully phosphorylated dermatoxin, unpurified crude preparation]” the “Absorbance at 538 nm (cytolytic peptide activity)” value (“Absorbance at 538 nm” below) (18 hrs (d), 1:10-diluted sample, lipid conc. 0.004, dermatoxin mass 3.3 × 10^−9 mg, without phosphatase) was 0.054 absorbance units, the “Absorbance at 538 nm” value (18 hrs (d), 1:10-diluted sample, lipid conc. 0.02, dermatoxin mass 3.3 × 10^−5 mg, with phosphatase) was 0.262 absorbance units and the “Absorbance at 538 nm” value (18 hrs (d), 1:10-diluted sample, lipid conc. 0.02, dermatoxin mass 3.3 × 10^−5 mg, without phosphatase) was 0.247 absorbance units. The “Absorbance at 538 nm” value (18 hrs (d), 1:10-diluted sample, lipid conc. 0.02, dermatoxin mass 3.3 × 10^−6 mg, with phosphatase) was 0.231 absorbance units, the “Absorbance at 538 nm” value (18 hrs (d), 1:10-diluted sample, lipid conc. 0.02, dermatoxin mass 3.3 × 10^−6 mg, without phosphatase) was 0.145 absorbance units and the “Absorbance at 538 nm” value (18 hrs (d), 1:10-diluted sample, lipid conc. 0.02, dermatoxin mass 3.3 × 10^−7 mg, with phosphatase) was 0.084 absorbance units. For the same sequence, the “Absorbance at 538 nm” value (18 hrs (d), 1:10-diluted sample, lipid conc. 0.02, dermatoxin mass 3.3 × 10^−7 mg, without phosphatase) was 0.072 absorbance units, the “Absorbance at 538 nm” value (18 hrs (d), 1:10-diluted sample, lipid conc. 0.02, dermatoxin mass 3.3 × 10^−8 mg, with phosphatase) was 0.075 absorbance units and the “Absorbance at 538 nm” value (18 hrs (d), 1:10-diluted sample, lipid conc. 0.02, dermatoxin mass 3.3 × 10^−8 mg, without phosphatase) was 0.054 absorbance units. The “Absorbance at 538 nm” value (18 hrs (d), 1:10-diluted sample, lipid conc. 0.02, dermatoxin mass 3.3 × 10^−9 mg, with phosphatase) was 0.072 absorbance units, the “Absorbance at 538 nm” value (18 hrs (d), 1:10-diluted sample, lipid conc. 0.02, dermatoxin mass 3.3 × 10^−9 mg, without phosphatase) was 0.054 absorbance units and the “Absorbance at 538 nm” value (18 hrs (d), 1:10-diluted sample, lipid conc. 0.1, dermatoxin mass 3.3 × 10^−5 mg, with phosphatase) was 1.045 absorbance units. The “Absorbance at 538 nm” value (18 hrs (d), 1:10-diluted sample, lipid conc. 0.1, dermatoxin mass 3.3 × 10^−5 mg, without phosphatase) was 0.846 absorbance units, the “Absorbance at 538 nm” value (18 hrs (d), 1:10-diluted sample, lipid conc. 0.1, dermatoxin mass 3.3 × 10^−6 mg, with phosphatase) was 0.785 absorbance units and the “Absorbance at 538 nm” value (18 hrs (d), 1:10-diluted sample, lipid conc. 0.1, dermatoxin mass 3.3 × 10^−6 mg, without phosphatase) was 0.413 absorbance units. The “Absorbance at 538 nm” value (18 hrs (d), 1:10-diluted sample, lipid conc. 0.1, dermatoxin mass 3.3 × 10^−7 mg, with phosphatase) was 0.095 absorbance units, the “Absorbance at 538 nm” value (18 hrs (d), 1:10-diluted sample, lipid conc. 0.1, dermatoxin mass 3.3 × 10^−7 mg, without phosphatase) was 0.145 absorbance units and the “Absorbance at 538 nm” value (18 hrs (d), 1:10-diluted sample, lipid conc. 0.1, dermatoxin mass 3.3 × 10^−8 mg, with phosphatase) was 0.076 absorbance units. The “Absorbance at 538 nm” value (18 hrs (d), 1:10-diluted sample, lipid conc. 0.1, dermatoxin mass 3.3 × 10^−8 mg, without phosphatase) was 0.060 absorbance units, the “Absorbance at 538 nm” value (18 hrs (d), 1:10-diluted sample, lipid conc. 0.1, dermatoxin mass 3.3 × 10^−9 mg, with phosphatase) was 0.075 absorbance units and the “Absorbance at 538 nm” value (18 hrs (d), 1:10-diluted sample, lipid conc. 0.1, dermatoxin mass 3.3 × 10^−9 mg, without phosphatase) was 0.058 absorbance units. For the same sequence, the “Absorbance at 538 nm” value (18 hrs, lipid conc. 0, dermatoxin mass 3.3 × 10^−5 mg, with phosphatase) was 0.153 absorbance units, the “Absorbance at 538 nm” value (18 hrs, lipid conc. 0, dermatoxin mass 3.3 × 10^−5 mg, without phosphatase) was 0.147 absorbance units and the “Absorbance at 538 nm” value (18 hrs, lipid conc. 0, dermatoxin mass 3.3 × 10^−6 mg, with phosphatase) was 0.149 absorbance units. For the same sequence, the “Absorbance at 538 nm” value (18 hrs, lipid conc. 0, dermatoxin mass 3.3 × 10^−6 mg, without phosphatase) was 0.139 absorbance units, the “Absorbance at 538 nm” value (18 hrs, lipid conc. 0, dermatoxin mass 3.3 × 10^−7 mg, with phosphatase) was 0.148 absorbance units and the “Absorbance at 538 nm” value (18 hrs, lipid conc. 0, dermatoxin mass 3.3 × 10^−7 mg, without phosphatase) was 0.132 absorbance units. The “Absorbance at 538 nm” value (18 hrs, lipid conc. 0, dermatoxin mass 3.3 × 10^−8 mg, with phosphatase) was 0.149 absorbance units, the “Absorbance at 538 nm” value (18 hrs, lipid conc. 0, dermatoxin mass 3.3 × 10^−8 mg, without phosphatase) was 0.131 absorbance units and the “Absorbance at 538 nm” value (18 hrs, lipid conc. 0, dermatoxin mass 3.3 × 10^−9 mg, with phosphatase) was 0.150 absorbance units. The “Absorbance at 538 nm” value (18 hrs, lipid conc. 0, dermatoxin mass 3.3 × 10^−9 mg, without phosphatase) was 0.133 absorbance units, the “Absorbance at 538 nm” value (18 hrs, lipid conc. 0.004, dermatoxin mass 3.3 × 10^−5 mg, with phosphatase) was 0.494 absorbance units and the “Absorbance at 538 nm” value (18 hrs, lipid conc. 0.004, dermatoxin mass 3.3 × 10^−5 mg, without phosphatase) was 0.499 absorbance units. For the same sequence, the “Absorbance at 538 nm” value (18 hrs, lipid conc. 0.004, dermatoxin mass 3.3 × 10^−6 mg, with phosphatase) was 0.494 absorbance units, the “Absorbance at 538 nm” value (18 hrs, lipid conc. 0.004, dermatoxin mass 3.3 × 10^−6 mg, without phosphatase) was 0.410 absorbance units and the “Absorbance at 538 nm” value (18 hrs, lipid conc. 0.004, dermatoxin mass 3.3 × 10^−7 mg, with phosphatase) was 0.287 absorbance units. The “Absorbance at 538 nm” value (18 hrs, lipid conc. 0.004, dermatoxin mass 3.3 × 10^−7 mg, without phosphatase) was 0.169 absorbance units, the “Absorbance at 538 nm” value (18 hrs, lipid conc. 0.004, dermatoxin mass 3.3 × 10^−8 mg, with phosphatase) was 0.240 absorbance units and the “Absorbance at 538 nm” value (18 hrs, lipid conc. 0.004, dermatoxin mass 3.3 × 10^−8 mg, without phosphatase) was 0.141 absorbance units. For the same sequence, the “Absorbance at 538 nm” value (18 hrs, lipid conc. 0.004, dermatoxin mass 3.3 × 10^−9 mg, with phosphatase) was 0.243 absorbance units, the “Absorbance at 538 nm” value (18 hrs, lipid conc. 0.004, dermatoxin mass 3.3 × 10^−9 mg, without phosphatase) was 0.139 absorbance units and the “Absorbance at 538 nm” value (18 hrs, lipid conc. 0.02, dermatoxin mass 3.3 × 10^−5 mg, with phosphatase) was 2.003 absorbance units. For the same sequence, the “Absorbance at 538 nm” value (18 hrs, lipid conc. 0.02, dermatoxin mass 3.3 × 10^−5 mg, without phosphatase) was 1.833 absorbance units, the “Absorbance at 538 nm” value (18 hrs, lipid conc. 0.02, dermatoxin mass 3.3 × 10^−6 mg, with phosphatase) was 1.856 absorbance units and the “Absorbance at 538 nm” value (18 hrs, lipid conc. 0.02, dermatoxin mass 3.3 × 10^−6 mg, without phosphatase) was 1.013 absorbance units. For the same sequence, the “Absorbance at 538 nm” value (18 hrs, lipid conc. 0.02, dermatoxin mass 3.3 × 10^−7 mg, with phosphatase) was 0.469 absorbance units, the “Absorbance at 538 nm” value (18 hrs, lipid conc. 0.02, dermatoxin mass 3.3 × 10^−7 mg, without phosphatase) was 0.315 absorbance units and the “Absorbance at 538 nm” value (18 hrs, lipid conc. 0.02, dermatoxin mass 3.3 × 10^−8 mg, with phosphatase) was 0.357 absorbance units. For the same sequence, the “Absorbance at 538 nm” value (18 hrs, lipid conc. 0.02, dermatoxin mass 3.3 × 10^−8 mg, without phosphatase) was 0.149 absorbance units, the “Absorbance at 538 nm” value (18 hrs, lipid conc. 0.02, dermatoxin mass 3.3 × 10^−9 mg, with phosphatase) was 0.336 absorbance units and the “Absorbance at 538 nm” value (18 hrs, lipid conc. 0.02, dermatoxin mass 3.3 × 10^−9 mg, without phosphatase) was 0.143 absorbance units. For the same sequence, the “Absorbance at 538 nm” value (18 hrs, lipid conc. 0.1, dermatoxin mass 3.3 × 10^−5 mg, without phosphatase) was 3.720 absorbance units, the “Absorbance at 538 nm” value (18 hrs, lipid conc. 0.1, dermatoxin mass 3.3 × 10^−6 mg, without phosphatase) was 3.294 absorbance units and the “Absorbance at 538 nm” value (18 hrs, lipid conc. 0.1, dermatoxin mass 3.3 × 10^−7 mg, with phosphatase) was 0.530 absorbance units. The “Absorbance at 538 nm” value (18 hrs, lipid conc. 0.1, dermatoxin mass 3.3 × 10^−7 mg, without phosphatase) was 0.974 absorbance units, the “Absorbance at 538 nm” value (18 hrs, lipid conc. 0.1, dermatoxin mass 3.3 × 10^−8 mg, with phosphatase) was 0.349 absorbance units and the “Absorbance at 538 nm” value (18 hrs, lipid conc. 0.1, dermatoxin mass 3.3 × 10^−8 mg, without phosphatase) was 0.200 absorbance units. The “Absorbance at 538 nm” value (18 hrs, lipid conc. 0.1, dermatoxin mass 3.3 × 10^−9 mg, with phosphatase) was 0.358 absorbance units, the “Absorbance at 538 nm” value (18 hrs, lipid conc. 0.1, dermatoxin mass 3.3 × 10^−9 mg, without phosphatase) was 0.177 absorbance units and the “Permeabilization of the liposomes in the presence versus absence of phosphatase” value (all wells except the highest concentration of the crude preparation) was “more permeabilization”.
